One test has as its system CTLL2. In words: Cellular screening, CTLL2 cells (Alamar Blue). The test is classed as cell-based. Particulars: Mus musculus, CTLL-2; 48-72 hr incubation; read-out: CTLL2_IC50_μM. As for the experimental part:
(§1) For screening purposes, compounds were diluted in 96 well plates at a concentration of 20 μM. Plates were warmed at 37° C. for 30 minutes before the assay was performed.
(§2) Cell suspensions were prepared by harvesting cells from culture (the cells used in this test were in late log phase growth with high viability.) Cells were diluted in the appropriate growth medium, as described above, to 1.1× final concentration (from 50,000 cell/mL to 200,000 cell/mL, depending on cell line).
(§3) Compounds to be tested were added (10 μL, 10× final concentration) to a flat bottomed 96-well plate. The cellular suspension (90 μL per well) was then added, and the plate incubated for 48-72 hr at 37° C., 5% CO2. Alamar Blue 10 μL per well was added and the plates returned to the incubator for a further 4-6 hours. The plates were then read at 544 nm.
(§4) Result are given in table 2 where +++ is <1 μM, ++ is <5 μM and + is <20 μM

In test [1] the test system is BaF3 TELJAK cells (BafT_J2). The experiment in a line: Cellular screening, BaF3 TELJAK2 cells (Alamar Blue). Conditions: Mus musculus, BaF3; 48-72 hr incubation; read-out: BafT_J2_IC50_μM. The format is cell-based. How it is done:
as §1
A TEL/Jak2 fusion was generated by digestion of the TELPCR product with BamH I/Sal I restriction enzymes, digestion of the JAK2 PCR product with Sal I/Not I restriction enzymes, followed by ligation and subcloning of the ligation product into the mammalian expression Vector pTRE 2 (Clontech), which was prepared by digestion with BamH I—Not I restriction enzymes, to give the TEL/Jak2 fusion plasmid pTELJAK2.
(§5) The growth factor dependent myelomonocytic cell line BaF3 bearing the pTET-off plasmid (Clontech) was transfected with either pTELJAK2 or pTELJAK3, and the transfected cells were selected for growth-factor independent cell growth. The BaF3 wild-type cells were cultured in DMEM containing 10% FCS, 10% WEHI 3B conditioned medium. The BaF3 TELJAK cells ([…]) were cultured in DMEM 10% Tet-System Approved FBS (without WEHI 3B conditioned medium).
as §2
Compounds to be tested were added (10 μL, 10× final concentration) to a flat bottomed 96-well plate. The cellular suspension (90 μL per well) was then added, and the plate incubated for 48-72 hr at 37° C., 5% CO2. Alamar Blue 10 μL per well was added and the plates returned to the incubator for a further 4-6 hours.
as §4
A general note: Resazurin is reduced to fluorescent resorufin, in cell work by metabolically active cells.

Another test deals with BaF3 wild-type cells. In words: Cellular screening, BaF3 wild-type cells (Alamar Blue). The test is classed as cell-based. Conditions: Mus musculus, 48-72 hr incubation, read-out: BAF3wt_IC50_μM. How it is done: as §1, §5, §2, §3, §4
Another test has as its target human JAK2 (Homo sapiens (Human), UniProt O60674). The experiment in a line: JAK2 kinase domain Alphascreen enzyme screening. The format is biochemical. Particulars: read-out: JAK2_IC50_nM. How it is done:
(§6) For screening purposes, compounds (in 100% DMSO) were warmed at 37° C. for at least 20 minutes before use. A […] stock was initially made in assay buffer, where the final concentration of DMSO was 0.3%. The stocks were then diluted in 384 well Optiplates (Packard) where the final concentration of the compound was 5 μM.
The kinase domain of human JAK2 was amplified from U937 mRNA using the polymerase chain reaction with the following primers: […]
The JAK2 PCR products were cloned into the pDest20 destination vector (Gibco). The JAK2 plasmid was then transformed into competent DH10Bac cells (Gibco), and the recombinant baculovirus was prepared via Sf9 insect cell transfection.
(§7) Baculovirus preparations from each of the JAK family members were infected into one litre of […] (Spodoptera frugiperda) cells (Invitrogen) grown in SF900II serum free medium (Invitrogen) to a cell density of approximately 2×10^6 cells/ml. Cells were infected with virus at a cell culture to virus stock ratio of 20:1. Cells were harvested and lysed 48 hours post infection. The GST-tagged JAK kinase domains were purified by affinity chromatography on a GSH agarose column (Scientifix).
Alphascreen phosphotyrosine acceptor beads followed by streptavidin donor beads at a concentration of 1/100 in stop buffer were added to each well under subdued light and incubated for 2-3 hours. The Alphascreen plates were read on a Packard Fusion Alpha instrument
For orientation: In Alpha technology, singlet oxygen from a donor bead excites a nearby acceptor bead.

A further test deals with human JAK3 (Homo sapiens (Human), UniProt P52333). In words: JAK3 kinase domain Alphascreen enzyme screening. The test is classed as biochemical. Conditions: read-out: JAK3_ IC50_nM. How it is done:
as §6
The kinase domain of human JAK3 was amplified from U937 mRNA using the polymerase chain reaction with the following primers: […]
The JAK3 PCR products were cloned into the pDest20 destination expression vector (Gibco). The JAK3 plasmid was then transformed into competent DH10Bac cells (Gibco), and the recombinant baculovirus was prepared via Sf9 insect cell transfection.
as §7
The compounds were then incubated with substrate in the presence of either […] ATP for 60 or 90 minutes. […] (final concentration 111 μM) or substrate-2 substrate with the sequence biotin-[…] [SEQ ID NO: 16] (final concentration 133 μM). Alphascreen phosphotyrosine acceptor beads followed by streptavidin donor beads at a concentration of 1/100 in stop buffer were added to each well under subdued light and incubated for 2-3 hours. The Alphascreen plates were read on a Packard Fusion Alpha instrument

human JAK3, sequence (P52333 822-1111): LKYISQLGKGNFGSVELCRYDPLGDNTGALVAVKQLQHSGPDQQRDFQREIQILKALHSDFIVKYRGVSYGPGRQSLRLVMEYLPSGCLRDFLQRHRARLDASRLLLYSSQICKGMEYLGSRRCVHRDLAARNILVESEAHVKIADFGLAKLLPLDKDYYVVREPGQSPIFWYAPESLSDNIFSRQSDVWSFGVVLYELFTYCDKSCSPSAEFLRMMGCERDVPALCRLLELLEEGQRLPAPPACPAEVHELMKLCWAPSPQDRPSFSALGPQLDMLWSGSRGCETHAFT
human JAK2, sequence (O60674 849-1124): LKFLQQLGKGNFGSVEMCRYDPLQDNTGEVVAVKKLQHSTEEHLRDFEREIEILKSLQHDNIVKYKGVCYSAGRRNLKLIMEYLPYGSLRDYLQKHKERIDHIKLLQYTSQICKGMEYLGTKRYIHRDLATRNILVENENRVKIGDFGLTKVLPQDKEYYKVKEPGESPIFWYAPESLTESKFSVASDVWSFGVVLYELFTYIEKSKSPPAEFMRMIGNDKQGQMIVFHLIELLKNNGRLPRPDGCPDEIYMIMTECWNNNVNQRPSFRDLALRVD

Take `CCOC(=O)c1ccc(-c2ccnc(Nc3ccc(N4CCOCC4)cc3)n2)cc1` [Compound 1, ethyl 4-(2-(4-morpholinophenyl-amino)pyrimidin-4-yl)benzoate]: the IC50 (with CTLL2; in test [1]; in the test on BaF3 wild-type cells) was more than 20 µM throughout.

Turning to `N#Cc1cccc(-c2ccnc(Nc3ccc(N4CCOCC4)cc3)n2)c1` [Compound 5, 3-(2-(4-morpholinophenyl-amino)pyrimidin-4-yl)benzonitrile], the figures for the IC50 (on human JAK2; in test [1]) were less than 0.5 µM and more than 20 µM, respectively.

Regarding `N#Cc1cc(-c2ccnc(Nc3ccc(N4CCOCC4)cc3)n2)ccc1F` [Compound 7, 2-fluoro-5-(2-(4-morpholinophenyl-amino)pyrimidin-4-yl)benzonitrile], at human JAK2, the IC50 is more than 1 µM.

Take `COc1cc(Nc2nccc(-c3ccc(F)c(C#N)c3)n2)cc(OC)c1OC` [Compound 8, 2-fluoro-5-(2-(3,4,5-trimethoxyphenyl-amino)pyrimidin-4-yl)benzonitrile]: the IC50 on human JAK2 is less than 0.5 µM.

On to `N#Cc1cc(-c2ccnc(Nc3ccc(N4CCOCC4)cc3)n2)ccc1O` [Compound 9, 2-hydroxy-5-(2-(4-morpholinophenyl-amino)pyrimidin-4-yl)benzonitrile], for which the IC50 is less than 5 µM in the test on CTLL2; less than 0.5 µM on human JAK2; less than 0.5 µM on human JAK3; less than 5 µM in test [1]; less than 5 µM in the test on BaF3 wild-type cells.

Turning to `Cc1cc(-c2ccnc(Nc3ccc(N4CCOCC4)cc3)n2)ccc1C(=O)NCC#N` [Compound 11, N-(cyanomethyl)-2-methyl-4-(2-(4-morpholinophenyl-amino)pyrimidin-4-yl)benzamide], the IC50 in the test on CTLL2 was less than 5 µM; at human JAK2, less than 0.1 µM.

With `COc1cc(-c2ccnc(Nc3ccc(N4CCOCC4)cc3)n2)ccc1C#N` [Compound 16, 2-methoxy-4-(2-(4-morpholinophenyl-amino)pyrimidin-4-yl)benzonitrile], the IC50 is more than 20 µM in the test on CTLL2; more than 1 µM at human JAK2; more than 1 µM at human JAK3; more than 20 µM in test [1]; more than 20 µM with BaF3 wild-type cells.

For the compound `O=C(NCc1ccncc1)c1ccc(-c2ccnc(Nc3ccc(N4CCOCC4)cc3)n2)cc1` [Compound 17, 4-(2-(4-morpholinophenyl-amino)pyrimidin-4-yl)-N-(pyridin-4-ylmethyl)benzamide], the IC50 is more than 20 µM in the test with CTLL2; less than 0.5 µM on human JAK2; less than 1 µM on human JAK3; less than 5 µM in test [1]; less than 20 µM with BaF3 wild-type cells.

Regarding `O=C(NCc1cccnc1)c1ccc(-c2ccnc(Nc3ccc(N4CCOCC4)cc3)n2)cc1` [Compound 18, 4-(2-(4-morpholinophenyl-amino)pyrimidin-4-yl)-N-(pyridin-3-ylmethyl)benzamide], the IC50 is less than 20 µM with CTLL2; less than 0.5 µM at human JAK2; less than 1 µM at human JAK3; less than 5 µM in test [1]; more than 20 µM in the test on BaF3 wild-type cells.

For the compound `N#Cc1ccc(-c2ccnc(Nc3ccc(N4CCOCC4)cc3)n2)cc1Cl` [Compound 19, 2-chloro-4-(2-(4-morpholinophenyl-amino)pyrimidin-4-yl)benzonitrile], the figures for the IC50 (at human JAK2; at human JAK3; in test [1]) were more than 1 µM, more than 1 µM and more than 20 µM, respectively.

For the compound `O=C(Nc1cc[nH]n1)c1ccc(-c2ccnc(Nc3ccc(N4CCOCC4)cc3)n2)cc1` [Compound 22, 4-(2-(4-morpholinophenyl-amino)pyrimidin-4-yl)-N-(1H-pyrazol-3-yl)benzamide], the IC50 on human JAK2 was more than 1 µM; at human JAK3 it was less than 0.5 µM; in test [1] it was more than 20 µM.

With `CC(C)(C#N)NC(=O)c1ccc(-c2ccnc(Nc3ccc(N4CCOCC4)cc3)n2)cc1` [Compound 23, N-(2-cyanopropan-2-yl)-4-(2-(4-morpholinophenyl-amino)pyrimidin-4-yl)benzamide], the IC50 on human JAK2 was less than 1 µM; at human JAK3, less than 0.5 µM.

Turning to `N#CCNC(=O)c1ccc(-c2ccnc(Nc3ccc(N4CCSCC4)cc3)n2)cc1` [Compound 25, N-(cyanomethyl)-4-(2-(4-thiomorpholino-phenylamino)pyrimidin-4-yl)benzamide], the IC50 in the test on CTLL2 is less than 5 µM.

`N#CCNC(=O)c1ccc(-c2ccnc(Nc3ccc(N4CCC(O)CC4)cc3)n2)cc1` [Compound 36, N-(cyanomethyl)-4-(2-(4-(4-hydroxypiperidin-1-yl)phenylamino)pyrimidin-4-yl)benzamide]: the IC50 in the test on CTLL2 is less than 5 µM; at human JAK3 it was less than 0.1 µM; in test [1], less than 1 µM; with BaF3 wild-type cells, less than 5 µM.

Consider `Cc1cnc(Nc2ccc(N3CCC(CO)CC3)cc2)nc1-c1ccc(C(=O)NCC#N)cc1` [Compound 39, N-(cyanomethyl)-4-(2-(4-(4-(hydroxymethyl)piperidin-1-yl)phenylamino)-5-methylpyrimidin-4-yl)benzamide], for which the IC50 in the test on CTLL2 is less than 5 µM; on human JAK3 it was less than 0.1 µM; in test [1], less than 1 µM; in the test with BaF3 wild-type cells, less than 5 µM.

Turning to `CN1CCN(c2ccc(Nc3nccc(-c4ccc(C(=O)NCC#N)cc4)n3)cc2)CC1` [Compound 44, N-(cyanomethyl)-4-(2-(4-(4-methylpiperazin-1-yl)phenylamino)pyrimidin-4-yl)benzamide], the IC50 in the test on CTLL2 is less than 5 µM; at human JAK3, less than 0.5 µM; in the test with BaF3 wild-type cells it was less than 5 µM.

`COc1cc(-c2ccnc(Nc3ccc(N4CCOCC4)cc3)n2)ccc1C(=O)NCC#N` [Compound 45, N-(cyanomethyl)-2-methoxy-4-(2-(4-morpholinophenyl-amino)pyrimidin-4-yl)benzamide]: the IC50 in the test with CTLL2 is less than 1 µM; at human JAK2, less than 0.1 µM; at human JAK3 it was less than 0.1 µM.

Consider `Cc1cnc(Nc2ccc(N3CCCC(O)C3)cc2)nc1-c1ccc(C(=O)NCC#N)cc1` (centres unmarked) [Compound 46], for which the IC50 was less than 1 µM in the test with CTLL2 and less than 5 µM in the test on BaF3 wild-type cells.

As for `N#CCC(=O)Nc1ccc(-c2ccnc(Nc3ccc(N4CCOCC4)cc3)n2)cc1` [Compound 85, 2-cyano-N-(4-(2-(4-morpholinophenyl-amino)pyrimidin-4-yl)phenyl)acetamide], the IC50 with CTLL2 was less than 1 µM; in the test with BaF3 wild-type cells it was less than 5 µM.

For the compound `N#CCNC(=O)c1ccc(-c2ccnc(Nc3ccc(CN4CCS(=O)(=O)CC4)cc3)n2)cc1` [Compound 90], the IC50 is less than 20 µM in the test with CTLL2, less than 0.1 µM at human JAK2 and less than 1 µM in the test on BaF3 wild-type cells.

Consider `Cc1cnc(Nc2ccc(N3CCOCC3)cc2)nc1-c1ccc(C(=O)NCC#N)cc1` [Compound 92, N-(cyanomethyl)-4-(5-methyl-2-(4-morpholinophenyl-amino)pyrimidin-4-yl)benzamide], for which the IC50 with CTLL2 was less than 1 µM; at human JAK2, less than 0.1 µM; at human JAK3 it was less than 0.1 µM.

Values taken from patent publication US12570614B2, “Phenyl amino pyrimidine compounds and uses thereof” (GlaxoSmithKline LLC, priority 2007, dated 2026).
